Holding throughout (type): biochemical
The subject of test [1] is culture of Flammulina velutipes strain IFO 30601. As to the kind of experiment: Substrate specificity of the culture (phenol oxidase-like activity, Table 1). Particulars: pH 7.0; determined wavelength per substrate (Table 1).
The test system is the same in test [2]. As to the kind of experiment: Oxidative coupling reaction with 4-aminoantipyrine by the culture. Particulars: for activity of the culture for the substrate in words, oxidative coupling reaction: pH 7.0; for Specific Activity, Culture (oxidative coupling with 4-aminoantipyrine): reaction pH 7.0, 25° C., substrate 2.0 mM. As for the experimental part:
Next, the oxidative coupling reaction of the culture obtained in (2) in Example 1 mentioned above was determined by using color development as an index by the oxidative condensation of the substrate (hydrogen donor) with 4-aminoantipyrine, catalyzed by the culture of the present invention.
As the hydrogen donors, there were used phenolic compounds (phenol, 2-methoxyphenol, 2,6-dimethoxyphenol, catechol, resorcinol, hydroquinone, pyrogallol, gallic acid, propyl gallate, 1-naphthol, catechin), aminophenolic compounds (o-aminophenol, m-aminophenol, p-aminophenol), diaminophenolic compounds (o-phenylenediamine, m-phenylenediamine, p-phenylenediamine), and heterocyclic compounds (5-hydroxyindole, 2,6-diaminopyridine).
The above-mentioned culture solution was added to a reaction system containing 4-aminoantipyrine and an optional hydrogen donor. Thereafter, the activity of the culture of the present invention was assayed by determining a change in absorbance at 490 nm for the phenolic compound, the diaminophenolic compound and the heterocyclic compound, or determining a change in absorbance at 450 nm for the aminophenolic compound. As to a substrate hardly soluble in water, there was used one obtained by dissolving the substrate in a small amount of dimethyl sulfoxide and diluting the resulting solution with deionized water to a desired concentration. In Table 4, DMSO is an abbreviation for dimethyl sulfoxide.
(§1) Concretely, 190 μl of 105.3 mM phosphate buffer (pH 7.0) containing 0.4 μmol of a substrate and 4.0 μmol of 4-aminoantipyrine was pre-incubated in wells of a 96-well microplate [manufactured by Corning, Costor (registered trademark) 3368] at 25° C. for 1 minute. Next, 10 μl of the above-mentioned culture solution was added to the resulting mixture, and thereafter, the mixture was incubated for 1 hour. A change in absorbance at 490 nm or 450 nm was determined for the resulting product. One unit (U) of the activity regarding the oxidative coupling reaction was defined as an amount for increasing the absorbance by 1 per one minute.

Test [3] concerns the target T1, bilirubin oxidase from the strain of the genus Myrothecium (Albifimbria verrucaria, UniProt Q12737).
T1 sequence (Q12737 39-572): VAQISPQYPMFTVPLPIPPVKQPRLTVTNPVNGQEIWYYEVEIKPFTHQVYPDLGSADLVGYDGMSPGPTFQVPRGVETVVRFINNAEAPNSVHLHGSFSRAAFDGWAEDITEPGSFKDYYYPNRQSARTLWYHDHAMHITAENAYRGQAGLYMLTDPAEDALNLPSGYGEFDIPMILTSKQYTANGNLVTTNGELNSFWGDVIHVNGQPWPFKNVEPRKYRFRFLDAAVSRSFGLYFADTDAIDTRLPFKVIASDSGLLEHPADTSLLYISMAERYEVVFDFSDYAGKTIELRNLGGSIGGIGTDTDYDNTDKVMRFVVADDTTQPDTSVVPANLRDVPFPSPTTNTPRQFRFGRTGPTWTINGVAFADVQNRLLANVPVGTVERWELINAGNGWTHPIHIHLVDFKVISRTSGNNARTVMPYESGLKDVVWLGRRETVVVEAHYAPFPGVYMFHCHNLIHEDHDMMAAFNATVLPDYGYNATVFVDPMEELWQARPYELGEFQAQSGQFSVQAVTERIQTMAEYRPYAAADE
As to the kind of experiment: Oxidative coupling reaction with 4-aminoantipyrine by bilirubin oxidase (comparison). The following applies: reaction pH 8.0, substrate 2.0 mM. As for the experimental part:
as §1
In addition, for the comparison, the examination was made in the same manner for bilirubin oxidase from the strain of the genus Myrothecium except that the above-mentioned buffer was replaced with 105.3 mM Tris-HCl buffer (pH 8.0).

Test [4] relates to culture of Flammulina velutipes strain IFO 30601. As to the kind of experiment: Direct oxidation reaction by the culture. The following applies: for activity of the culture for the substrate in words, direct oxidation reaction: pH 7.0; for activity of the culture compared with bilirubin oxidase from the genus Myrothecium, direct oxidation / activity of the culture compared with laccase from Japanese lacquer, direct oxidation: pH 7.0, relative activities of Table 7; for Relative Activity, Culture (direct oxidation): reaction pH 7.0, 2-chloro 1,4-phenylenediamine = 100. As for the experimental part: Further, the direct oxidation reaction of the culture obtained in the above-mentioned example was determined by using color development due to oxidative polymerization of a substrate generated by the direct action of the culture of the present invention on the substrate as an index.
As the substrates, there were used diaminophenolic compounds (2-chloro 1,4-phenylenediamine, p-phenylenediamine, 2,5-diaminotoluene, N-phenyl-p-phenylenediamine, toluylene-3,4-diamine, m-phenylenediamine), aminophenolic compounds (o-aminophenol, m-aminophenol, 5-amino-o-cresol, p-aminophenol, p-methylaminophenol), and phenolic compounds (2,6-dimethoxyphenol, catechol, resorcinol, hydroquinone, pyrogallol, gallic acid, propyl gallate, 1-naphthol, […], 2,3,4-trihydroxybenzophenone, 2,3,4,4-tetrahydroxybenzophenone). As to a substrate hardly soluble in water, there was used one obtained by dissolving the substrate in a small amount of dimethyl sulfoxide and diluting the resulting solution with deionized distilled water to a desired concentration. In Table 6, %” indicates volume/volume %.
(§2) Concretely, 180 μl of 0.89 mM sodium phosphate buffer (pH 7.0) containing […] substrate was pre-incubated in wells of a 96-well microplate [manufactured by Corning, Costor (registered trademark) 3368] at 25° C. for 1 minute. Next, 20 μl of the above-mentioned culture solution was added to the resulting mixture. A change in absorbance at 490 nm, 450 nm or 405 nm was determined for the resulting product, depending on the substrate. Here, 1 U (unit) of the activity regarding the direct oxidative reaction was defined as an amount for increasing the absorbance by 1 per one minute.

Test [5] has as its system laccase from Japanese lacquer. As to the kind of experiment: Direct oxidation reaction by laccase (comparison). Particulars: reaction pH 7.0; 2-chloro 1,4-phenylenediamine = 100. On the procedure:
Next, 20 μl of the above-mentioned culture solution was added to the resulting mixture. A change in absorbance at 490 nm, 450 nm or 405 nm was determined for the resulting product, depending on the substrate. Here, 1 U (unit) of the activity regarding the direct oxidative reaction was defined as an amount for increasing the absorbance by 1 per one minute.
(§3) In addition, for the comparison, the substrate specificities at pH 7.0 for laccase from Japanese lacquer and bilirubin oxidase from the strain belonging to the genus Myrothecium were also examined in the same manner.

For test [6], the target named is T2, bilirubin oxidase from the strain belonging to the genus Myrothecium (Albifimbria verrucaria, UniProt Q12737).
T2 sequence (Q12737 39-572): T1 sequence (Q12737 39-572)
As to the kind of experiment: Direct oxidation reaction by bilirubin oxidase (comparison). Details: concentration or dose not given beside the values. The following applies: reaction pH 7.0; 2-chloro 1,4-phenylenediamine = 100. On the procedure:
as §2, §3
The relative activity (%) for each substrate is shown in Table 7, in which the measured value for a case where a representative chemical dye 2-chloro 1,4-phenylenediamine was used as a substrate is 100.

SMILES strings stand for the structures.

Turning to `Oc1cccc2[nH]ccc12` [4-Hydroxyindole], the “U (activity of the culture on the substrate)” value in test [1] is reported as 0.078 U.

For the compound `CCn1c(=NN=c2sc3cc(S(=O)(=O)O)ccc3n2CC)sc2cc(S(=O)(=O)O)ccc21` [ABTS], the “U (activity of the culture on the substrate)” value in test [1] amounted to 0.683 U.

In the case of `Nc1ccc(O)cc1` [p-Aminophenol], in test [1], the “U (activity of the culture on the substrate)” value was determined as 0.072 U. Moreover, in test [2], the “activity of the culture for the substrate in words, oxidative coupling reaction” value (from here on “activity … oxidative coupling reaction”) is “especially high activity” and the “Specific Activity, Culture (oxidative coupling with 4-aminoantipyrine)” value (“Specific Activity, Culture” for short) is given as 12.7 U/mg Protein. Besides, in test [3], the “Specific Activity, Bilirubin Oxidase from Strain Belonging to Genus Myrothecium (oxidative coupling with 4-aminoantipyrine)” value (“Specific Activity, Bilirubin Oxidase” for short) amounted to 7.0 U/mg Protein. Also, in test [4], the “activity of the culture for the substrate in words, direct oxidation reaction” value (shortened to “activity … direct oxidation reaction”) was “especially high activity”; the “activity of the culture compared with bilirubin oxidase from the genus Myrothecium, direct oxidation” value was “higher activity”; the “activity of the culture compared with laccase from Japanese lacquer, direct oxidation” value is recorded as “higher activity”; the “Relative Activity, Culture (direct oxidation)” value (“Relative Activity, Culture” below) was 235%. For the same compound, the “Relative Activity, Laccase from Japanese Lacquer (direct oxidation)” value (“Relative Activity, Laccase” below) in test [5] is on record as 109%. Besides, in test [6], the “Relative Activity, Bilirubin Oxidase from Strain Belonging to Genus Myrothecium (direct oxidation)” value (from here on “Relative Activity, Bilirubin Oxidase”) is listed as 70%.

On to `Nc1ccc(N)cc1` [p-Phenylenediamine], for which the “U (activity of the culture on the substrate)” value in test [1] is listed as 0.101 U. For the same compound, in test [2], the “Specific Activity, Culture” value was 20.9 U/mg Protein. Also, in test [3], the “Specific Activity, Bilirubin Oxidase” value is 11.1 U/mg Protein. Moreover, in test [4], the “activity … direct oxidation reaction” value is recorded as “especially high activity”; the “activity of the culture compared with bilirubin oxidase from the genus Myrothecium, direct oxidation” value is listed as “higher activity”; the “activity of the culture compared with laccase from Japanese lacquer, direct oxidation” value was “higher activity”; the “Relative Activity, Culture” value came to 388%. The “Relative Activity, Laccase” value in test [5] came out at 142%. In addition, in test [6], the “Relative Activity, Bilirubin Oxidase” value is reported as 82%.

Turning to `Nc1cccc(O)c1` [m-Aminophenol], the “Specific Activity, Culture” value in test [2] came out at 8.8 U/mg Protein. Further, the “Specific Activity, Bilirubin Oxidase” value in test [3] came out at 1.3 U/mg Protein. Besides, in test [4], the “activity of the culture compared with bilirubin oxidase from the genus Myrothecium, direct oxidation” value was “even higher activity”; the “activity of the culture compared with laccase from Japanese lacquer, direct oxidation” value is “even higher activity”; the “Relative Activity, Culture” value was 40%. Moreover, the “Relative Activity, Laccase” value in test [5] was determined as 3%. Also, the “Relative Activity, Bilirubin Oxidase” value in test [6] is 3%.

Turning to `COc1ccccc1O` [2-Methoxyphenol], the “U (activity of the culture on the substrate)” value in test [1] amounted to 0.117 U. In test [2], the “activity … oxidative coupling reaction” value is on record as “especially high activity” and the “Specific Activity, Culture” value was determined as 14.5 U/mg Protein. Also, in test [3], the “Specific Activity, Bilirubin Oxidase” value worked out at 2.5 U/mg Protein.

Regarding `COc1cc(/C=N/N=C/c2cc(OC)c(O)c(OC)c2)cc(OC)c1O` [Syringaldazine], the “U (activity of the culture on the substrate)” value in test [1] was found to be 0.141 U.

On to `Oc1cccc2ccccc12` [1-Naphthol], for which, in test [2], the “activity … oxidative coupling reaction” value is “especially high activity” and the “Specific Activity, Culture” value is recorded as 18.1 U/mg Protein. In test [3], the “Specific Activity, Bilirubin Oxidase” value is 33.0 U/mg Protein. In addition, in test [4], the “activity of the culture compared with bilirubin oxidase from the genus Myrothecium, direct oxidation” value was “even higher activity” and the “Relative Activity, Culture” value is 17%. For the same compound, the “Relative Activity, Laccase” value in test [5] worked out at 17%. The “Relative Activity, Bilirubin Oxidase” value in test [6] was found to be 50%.

On to `Oc1ccc(O)cc1` [Hydroquinone], for which, in test [2], the “Specific Activity, Culture” value came out at 2.1 U/mg Protein. Further, the “Specific Activity, Bilirubin Oxidase” value in test [3] was determined as 0.5 U/mg Protein. In test [4], the “activity of the culture compared with bilirubin oxidase from the genus Myrothecium, direct oxidation” value was “even higher activity”; the “activity of the culture compared with laccase from Japanese lacquer, direct oxidation” value is recorded as “even higher activity”; the “Relative Activity, Culture” value was 20%. For the same compound, the “Relative Activity, Laccase” value in test [5] was found to be 2%. In addition, in test [6], the “Relative Activity, Bilirubin Oxidase” value was found to be 4%.

For `O=C(O)c1cc(O)c(O)c(O)c1` [Gallic acid], the “Specific Activity, Culture” value in test [2] came out at 0.9 U/mg Protein. For the same compound, the “Specific Activity, Bilirubin Oxidase” value in test [3] is 14.9 U/mg Protein. For the same compound, in test [4], the “activity of the culture compared with laccase from Japanese lacquer, direct oxidation” value is “even higher activity” and the “Relative Activity, Culture” value came out at 65%. For the same compound, the “Relative Activity, Laccase” value in test [5] is 9%. Also, the “Relative Activity, Bilirubin Oxidase” value in test [6] stood at 88%.

With `N[C@@H](Cc1ccc(O)cc1)C(=O)O` [L-Tyrosine], the “U (activity of the culture on the substrate)” value in test [1] is 0.018 U.

Turning to `Oc1cccc(O)c1O` [Pyrogallol], the “Specific Activity, Culture” value in test [2] was determined as 3.2 U/mg Protein. Moreover, the “Specific Activity, Bilirubin Oxidase” value in test [3] was −27.6 U/mg Protein. Besides, in test [4], the “activity … direct oxidation reaction” value is recorded as “high activity” and the “Relative Activity, Culture” value came out at 184%. Moreover, in test [5], the “Relative Activity, Laccase” value is 187%. In test [6], the “Relative Activity, Bilirubin Oxidase” value was 104%.

As to `Oc1cccc(O)c1` [Resorcinol], the “Specific Activity, Culture” value in test [2] is 5.7 U/mg Protein. The “Specific Activity, Bilirubin Oxidase” value in test [3] came to 25.6 U/mg Protein. Further, in test [4], the “activity of the culture compared with laccase from Japanese lacquer, direct oxidation” value is “higher activity” and the “Relative Activity, Culture” value was determined as 75%. Further, the “Relative Activity, Laccase” value in test [5] was determined as 25%. Besides, the “Relative Activity, Bilirubin Oxidase” value in test [6] was 91%.

For the origin of these results see patent US20050170485A1, “Culture having phenol oxidase-like activity” (priority 2002, published 2005).
